One assay has as its target T1, Estrogen Receptor (ER) (Homo sapiens, UniProt P03372).
T1 construct: expressed in transfected cells
T1 sequence (P03372 1-595): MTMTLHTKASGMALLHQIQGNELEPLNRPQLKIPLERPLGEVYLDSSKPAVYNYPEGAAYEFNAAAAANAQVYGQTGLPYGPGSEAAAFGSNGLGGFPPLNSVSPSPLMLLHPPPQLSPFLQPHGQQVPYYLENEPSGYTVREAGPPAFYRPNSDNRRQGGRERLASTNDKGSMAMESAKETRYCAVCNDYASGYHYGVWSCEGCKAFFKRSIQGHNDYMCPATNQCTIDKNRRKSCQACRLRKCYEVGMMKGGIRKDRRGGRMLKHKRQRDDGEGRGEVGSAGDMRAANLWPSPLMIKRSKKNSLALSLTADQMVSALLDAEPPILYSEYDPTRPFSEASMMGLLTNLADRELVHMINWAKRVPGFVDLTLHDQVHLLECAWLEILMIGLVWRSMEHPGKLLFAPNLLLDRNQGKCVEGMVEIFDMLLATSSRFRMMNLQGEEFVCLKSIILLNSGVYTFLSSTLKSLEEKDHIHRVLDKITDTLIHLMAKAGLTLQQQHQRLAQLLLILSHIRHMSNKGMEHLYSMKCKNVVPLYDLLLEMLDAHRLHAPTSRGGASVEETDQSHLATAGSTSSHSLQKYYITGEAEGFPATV
As to the kind of experiment: htSMT of HaloTag-ER in U2OS cells (fbound, Dfree; bioactive screen and dose titration). It counts as cell-based. The note with it: for change in fbound of ER: follow-up experiments after the screen (FIG. 12B, 14A, 16), 100 nM in FIG. 14A.

In assay [1] the target is T2, glucocorticoid receptor (GR) (Homo sapiens, UniProt P04150).
T2 construct: Because U2OS cells express GR endogenously, HaloTag was inserted right before the stop codon of endogenous NR3C1; endogenous in cells; host or cells: U2OS, CRISPR/Cas9 knock-in at the endogenous NR3C1 locus
T2 sequence (P04150 1-777): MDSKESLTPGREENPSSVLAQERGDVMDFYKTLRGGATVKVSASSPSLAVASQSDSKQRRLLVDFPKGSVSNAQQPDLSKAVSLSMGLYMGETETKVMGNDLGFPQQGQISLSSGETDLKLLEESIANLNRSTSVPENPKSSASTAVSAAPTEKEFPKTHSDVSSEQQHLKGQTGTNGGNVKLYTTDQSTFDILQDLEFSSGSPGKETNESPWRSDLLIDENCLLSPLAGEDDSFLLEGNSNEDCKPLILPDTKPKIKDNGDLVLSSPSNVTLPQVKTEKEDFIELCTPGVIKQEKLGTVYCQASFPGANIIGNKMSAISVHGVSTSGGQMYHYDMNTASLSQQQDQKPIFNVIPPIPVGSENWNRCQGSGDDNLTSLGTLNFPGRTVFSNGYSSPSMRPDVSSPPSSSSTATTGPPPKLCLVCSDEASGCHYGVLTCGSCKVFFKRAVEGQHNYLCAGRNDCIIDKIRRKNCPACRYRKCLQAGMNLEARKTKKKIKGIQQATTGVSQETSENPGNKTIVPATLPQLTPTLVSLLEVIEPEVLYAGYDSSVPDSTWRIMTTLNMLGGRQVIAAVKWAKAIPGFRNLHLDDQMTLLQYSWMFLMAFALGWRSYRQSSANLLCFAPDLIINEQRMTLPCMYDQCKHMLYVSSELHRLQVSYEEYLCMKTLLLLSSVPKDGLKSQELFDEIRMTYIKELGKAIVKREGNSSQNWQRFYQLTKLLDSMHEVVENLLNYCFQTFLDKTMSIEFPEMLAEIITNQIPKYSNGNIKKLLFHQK
The assay is described as follows: htSMT of Halo-GR in U2OS cells. It counts as cell-based. The note with it: 1 μM antagonist, singly or co-administered with the cognate agonist; FIG. 34D. The procedure: Thermo Fisher) at 500 μg/mL, then clonally isolated. […] Between three and six clones were subsequently tested using SMT conditions for response to a control compound, and the most homogenous clones were subsequently expanded for further testing. Unless otherwise specified, all experiments are with a single, clonally isolated cell line. Because U2OS cells express GR endogenously, HaloTag was inserted right before the stop codon of endogenous NR3C1 via homology-directed repair using CRISPR/Cas9. The HaloTag knock-in was validated by imaging using HTL-JF646 staining and through DNA sequencing.
Where appropriate, compounds were serially diluted in an Echo Qualified 384-Well Low Dead Volume Source Microplate (0018544, Beckman Coulter) to generate dose-titration source material.

The target in a further assay is androgen receptor (AR) (Homo sapiens, UniProt P10275).
androgen receptor (AR), sequence (P10275 whole entry): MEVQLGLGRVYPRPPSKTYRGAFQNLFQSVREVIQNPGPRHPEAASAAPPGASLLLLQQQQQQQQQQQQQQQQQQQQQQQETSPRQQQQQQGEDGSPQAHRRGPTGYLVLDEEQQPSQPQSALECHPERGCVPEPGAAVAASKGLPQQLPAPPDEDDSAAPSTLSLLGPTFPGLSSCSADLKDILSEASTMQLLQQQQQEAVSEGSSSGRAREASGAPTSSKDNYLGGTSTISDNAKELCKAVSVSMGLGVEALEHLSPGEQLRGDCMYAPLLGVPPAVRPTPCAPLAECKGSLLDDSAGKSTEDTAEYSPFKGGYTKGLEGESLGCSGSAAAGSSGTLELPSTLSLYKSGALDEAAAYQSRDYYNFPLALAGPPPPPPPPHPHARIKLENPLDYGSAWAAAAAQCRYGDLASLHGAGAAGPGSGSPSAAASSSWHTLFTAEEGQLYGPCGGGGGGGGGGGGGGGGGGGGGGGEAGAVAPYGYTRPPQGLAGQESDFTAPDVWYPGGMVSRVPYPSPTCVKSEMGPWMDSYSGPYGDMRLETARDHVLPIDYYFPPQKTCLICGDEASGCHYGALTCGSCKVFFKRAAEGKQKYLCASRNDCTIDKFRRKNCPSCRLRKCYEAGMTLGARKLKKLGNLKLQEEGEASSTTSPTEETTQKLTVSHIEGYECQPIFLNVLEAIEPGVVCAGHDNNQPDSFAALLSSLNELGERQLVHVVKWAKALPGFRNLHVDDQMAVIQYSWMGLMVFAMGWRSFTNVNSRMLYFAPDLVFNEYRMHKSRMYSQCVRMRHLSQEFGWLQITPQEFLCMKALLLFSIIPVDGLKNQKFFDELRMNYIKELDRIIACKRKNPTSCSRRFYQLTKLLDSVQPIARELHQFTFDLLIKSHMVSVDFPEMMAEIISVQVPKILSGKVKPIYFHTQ
Assay [2] deals with T3, ER (Homo sapiens, UniProt P03372).
T3 sequence (P03372 1-595): T1 sequence (P03372 1-595)
As to the kind of experiment: kinetic SMT (kSMT) of ER after compound addition. It counts as cell-based. The arrangement: expressed in transfected cells. The note with it: for t½ of increase in fbound: 100 nM; for time course of the overall effect on fbound: up to four-hour window.

Assay [3] deals with T3, ER. As to the kind of experiment: western blot of ER after fulvestrant treatment. It is filed as cell-based. The note with it: fulvestrant 24 hours prior to lysis; MCF7, T47d, U2OS Halo-ER; FIG. 20A. The arrangement: host or cells: Halo-ER U2OS (transfected fusion), or MCF7 / T47d (endogenous ER).
Assay [4] addresses T3, ER. The assay is described as follows: residence time imaging of ER (track length survival). The note with it: 100 nM HSP90 inhibition, FIG. 16E; normalized to DMSO. The arrangement: expressed in transfected cells. It is filed as cell-based.

“Also recorded” adds a separate entry of the source. Where two headings read alike, the source gives them in different places.

Take 4-hydroxytamoxifen: at Estrogen Receptor (ER), the “change in fbound of ER in bioactive screen” value was “significantly increased fbound” and the “maximal increase in ER fbound” value was “lower maximal increases in fbound”.
With `CN(C)c1ccc(C(c2ccc(N(C)C)cc2)c2cc([N+](=O)[O-])ccc2Cl)cc1` [AL082D06], the “change in GR chromatin binding (fbound)” value in assay [1] was “decrease in chromatin binding”.
With `CC(O)c1cc(C(=O)N[C@@H](C)Cn2ccc(-c3ccc(C#N)c(Cl)c3)n2)[nH]n1` (stereo partly drawn) [Darolutamide], at androgen receptor (AR), the “change in AR chromatin binding (fbound)” value is recorded as “decrease in chromatin binding”.
Regarding `COc1cccc(-c2cc(F)ccc2[C@H]2Cc3nc(N)nc(C)c3C(=O)N2)n1` [HSP990], at ER [2], the “t½ of increase in fbound” value was 17.5 min and the “time course of the overall effect on fbound” value (shortened to “time course … on fbound”) was “reached a plateau after an hour”. The “change in fbound of ER” value at Estrogen Receptor (ER) was “increase in fbound”.
On to `CC(C)C[C@H](NC(=O)[C@H](Cc1ccccc1)NC(=O)c1cnccn1)B(O)O` [bortezomib], for which the “time course … on fbound” value at ER [2] is listed as “slowly increasing over the four-hour measurement window”.
As for `CC(C)C[C@H](NC(=O)[C@H](CCc1ccccc1)NC(=O)CN1CCOCC1)C(=O)N[C@@H](Cc1ccccc1)C(=O)N[C@@H](CC(C)C)C(=O)[C@@]1(C)CO1` [carfilzomib], at ER [2], the “time course … on fbound” value is “slowly increasing over the four-hour measurement window”.
Regarding `C[C@]12CC[C@@H]3c4ccc(O)cc4C[C@@H](CCCCCCCCC[S+]([O-])CCCC(F)(F)C(F)(F)F)[C@H]3[C@@H]1CC[C@@H]2O` (stereo partly drawn) [fulvestrant], the “degradation of ER” value at ER [3] is “leads to the degradation of ER”. Moreover, at Estrogen Receptor (ER) (1 μM compound versus DMSO, 5,067 molecules, two replicates), the “change in fbound of ER in bioactive screen” value was “increase in fbound; also recorded: significantly increased fbound”.
As for `CC(C)c1cc(-c2n[nH]c(=O)n2-c2ccc3c(ccn3C)c2)c(O)cc1O` [ganetespib], at ER [2], the “t½ of increase in fbound” value was 19.3 min and the “time course … on fbound” value was “reached a plateau after an hour”. Further, on Estrogen Receptor (ER), the “change in fbound of ER” value is “increase in fbound”. In addition, the “decrease in the total number long binding events” value at ER [4] is reported as “four”.

The values are drawn from patent publication US20250314640A1, “SYSTEMS AND METHODS FOR HIGH THROUGHPUT SINGLE MOLECULE TRACKING IN LIVING CELLS” (EIKON THERAPEUTICS, INC., priority 2022, published 2025).
